# Assay results: patent US10155027B2, “Alpha-galactosidase A and 1-deoxygalactonojirimycin co-formulation for the treatment of fabry disease” (Amicus Therapeutics, Inc., priority 2012, dated 2018)
# Where a name gives a salt, the structure may show the parent alone. Read-outs that look alike come from different tables or passages of the source.
# Test: Phase 1 single ascending dose 2-hour IV infusion PK in healthy subjects (Cohorts 1-3)
# Format: in vivo, human
# Conditions: for Vd / AUC(0-t) / AUC(0-inf) / Tmax / half-life / Cmax: human, plasma; for Vd: iv; for AUC(0-t): read-out: AUC0-t (geometric mean)
# Experimental: Healthy volunteers received migalastat HCl (DGJ HCl) via the intravenous (IV) route of administration to evaluate safety, tolerability, and pharmacokinetics. Another study was performed to determine the absolute bioavailability of migalastat after an oral capsule dose as compared to an IV administered dose of migalastat HCl in healthy volunteers. The absolute bioavailability arm was added to determine the exposure ratio of a 150 mg oral dose relative to a 150 mg dose administered as an IV infusion.
# Type of Study: This Phase 1 study was a single-center study consisting of 2 designs. Cohorts 1, 2, and 3 were performed according to a randomized, double-blind, placebo-controlled, single ascending dose (SAD) IV study design to evaluate the safety, tolerability, and PK of IV administered migalastat HCl or IV administered placebo in healthy subjects. Cohort 4 was an open-label, randomized two-way crossover arm designed to assess the absolute bioavailability of orally administered migalastat HCl relative to IV administered migalastat HCl in healthy subjects.
# Cohorts 1, 2, 3: Subjects in Cohorts 1, 2, and 3 received IV administered single ascending doses of migalastat HCl. Seven subjects were enrolled into each cohort (5 subjects randomized to migalastat HCl and 2 subjects randomized to placebo). Dosing of Cohorts 1, 2, and 3 was staggered to allow for safety and tolerability review before proceeding with the next group. Therefore, Cohorts 1, 2, and 3 were each divided into 2 sub-groups: Group A (2 subjects randomized to migalastat HCl and 1 subject randomized to placebo) and Group B (3 subjects randomized to migalastat HCl and 1 subject randomized to placebo). Subjects in Group B were dosed the day following completion of Group A dosing. Except for Cohort 3B, which was dosed 31 days after Cohort 3A because an interim PK review was performed on emerged data from Cohort 3A. Additionally, initiation of infusion was staggered by 60 minutes for Group A subjects, and by 30 minutes for Group B subjects (see FIG. 12).
# Subjects enrolled in Cohorts 1, 2, and 3 were randomized to receive one of the following doses of migalastat HCl (n=5) or placebo (n=2): […]
# [1] = 1.0 mg/kg vs 0.3 mg/kg, theoretical 3.33
# [2] = 10 mg/kg vs 0.3 mg/kg, theoretical 33.3
smiles,measurement,setting,value
"OC[C@H]1NC[C@H](O)[C@@H](O)[C@H]1O [migalastat HCl, (2R,3S,4R,5S)-2-(hydroxymethyl) piperdine-3,4,5-triol]",CLT (arithmetic mean),0.3 mg/kg IV,6.59 L/h
same,CLT (arithmetic mean),1.0 mg/kg IV,7.68 L/h
same,"Ratio Test/Reference, AUC0-t",[1],3.01
same,"Ratio Test/Reference, AUC0-∞",[1],2.99
same,"Ratio Test/Reference, Cmax",[1],2.89
same,CLT (arithmetic mean),10 mg/kg IV,7.40 L/h
same,"Ratio Test/Reference, AUC0-t",[2],35.5
same,"Ratio Test/Reference, AUC0-∞",[2],35.2
same,"Ratio Test/Reference, Cmax",[2],33.9
same,dose proportionality of plasma exposure parameters,0.3 to 10 mg/kg single ascending IV dose range,appeared to be dose proportional
same,Vd,"0.3 mg/kg, 0.3 mg/kg IV, read-out: Vss (arithmetic mean)",17.9 L
same,Vd,"0.3 mg/kg, 0.3 mg/kg IV, read-out: Vz (arithmetic mean)",19.9 L
same,Vd,"1 mg/kg, 1.0 mg/kg IV, read-out: Vss (arithmetic mean)",24.2 L
same,Vd,"1 mg/kg, 1.0 mg/kg IV, read-out: Vz (arithmetic mean)",35 L
same,Vd,"10 mg/kg, 10 mg/kg IV, read-out: Vss (arithmetic mean)",27.2 L
same,Vd,"10 mg/kg, 10 mg/kg IV, read-out: Vz (arithmetic mean)",107 L
same,Vd,"0.3 to 10 mg/kg IV, read-out: Vss, range over doses",17.9 to 27.2 L
same,Vd,"0.3 to 10 mg/kg IV, read-out: arithmetic mean Vz, range over doses",19.9 to 107 L
same,AUC(0-t),0.3 mg/kg IV,2280 ng·h/mL
same,AUC(0-inf),"0.3 mg/kg IV, read-out: AUC0-∞ (geometric mean)",2320 ng·h/mL
same,Tmax,"0.3 mg/kg IV, read-out: tmax (median)",1.93 h
same,half-life,"0.3 mg/kg IV, read-out: t½ (arithmetic mean) (converted)",2.09 h
same,AUC(0-t),1.0 mg/kg IV,6860 ng·h/mL
same,AUC(0-inf),"1.0 mg/kg IV, read-out: AUC0-∞ (geometric mean)",6920 ng·h/mL
same,Tmax,"1.0 mg/kg IV, read-out: tmax (median)",1.93 h
same,half-life,"1.0 mg/kg IV, read-out: t½ (arithmetic mean) (converted)",3.21 h
same,AUC(0-t),10 mg/kg IV,81100 ng·h/mL
same,AUC(0-inf),"10 mg/kg IV, read-out: AUC0-∞ (geometric mean)",81400 ng·h/mL
same,Tmax,"10 mg/kg IV, read-out: tmax (median)",1.93 h
same,half-life,"10 mg/kg IV, read-out: t½ (arithmetic mean) (converted)",10 h
same,half-life,"0.3 to 10 mg/kg IV, read-out: arithmetic mean apparent terminal t½, range over doses",2.09 to 10 h
same,AUC(0-inf),"0.3 to 10 mg/kg IV, read-out: geometric mean AUC0-∞, range over doses",2320 to 81400 ng·h/mL
same,Cmax,"0.3 to 10 mg/kg IV, read-out: geometric mean Cmax, range over doses",609 to 20700 ng/mL
same,Tmax,"dose levels of 0.3, 1.0, and 10 mg/kg IV, post start of infusion, read-out: median tmax",1.93 h
same,Cmax,"0.3 mg/kg IV, 2-hour infusion, read-out: Cmax (geometric mean)",609 ng/mL
same,Cmax,"1.0 mg/kg IV, 2-hour infusion, read-out: Cmax (geometric mean)",1760 ng/mL
same,Cmax,"10 mg/kg IV, 2-hour infusion, read-out: Cmax (geometric mean)",20700 ng/mL
